Measured values published in patent US8148388B2, “2,4 (4,6) pyrimidine derivatives” (Janssen Pharmaceutica, N.V., priority 2004, dated 2012).

Experiments:
Format in all cases: biochemical
Lyn (h) = Lyn (h) (Homo sapiens, UniProt P07948); assay: Lyn human kinase assay (glass-fiber filter); settings: test concentration of 10^−6M; for inhibition at 1 µM: read-out: C10 score (inhibition of Lyn human)
In short: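 Human Lyn (5-10 mU) phosphorylating poly(Glu,Tyr) 4:1 at 0.1 mg/ml with [γ-33P]ATP (concentration as required) in 50 mM Tris pH 7.5, 10 mM Mg acetate, 40 min at room temperature. Stopped with phosphoric acid; substrate-bound radioactivity counted on glass-fibre filter.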

EGFR (h) = EGFR (h) (Homo sapiens, UniProt P00533); assay: EGFR human kinase assay (glass-fiber filter); settings: test concentration of 10^−6M; for inhibition at 1 µM: read-out: C4 score (inhibition of EGFR human)
In short: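 Human EGFR (5-10 mU) phosphorylated 0.1 mg/ml poly(Glu, Tyr) 4:1 in 8 mM MOPS pH 7.0, 0.2 mM EDTA, 10 mM MnCl2, 10 mM MgAcetate with [γ-33P]ATP at unspecified concentration. Incubation lasted 40 minutes at room temperature, was stopped with phosphoric acid, and filter-bound 33P was counted by scintillation.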

cSRC (h) = cSRC (h) (Homo sapiens, UniProt P12931); assay: cSRC human kinase assay (glass-fiber filter); settings: test concentration of 10^−6M; for inhibition at 1 µM: read-out: C3 score (inhibition of cSRC human)
In short: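 Radiometric assay: kinase and substrate are incubated with [33P]ATP, with the reaction started by MgATP mix. The reaction is spotted on P30 filtermat, washed in 75 mM phosphoric acid and methanol, and the bound 33P is measured by scintillation counting.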

GSK3B (h) = GSK3B (h) (Homo sapiens, UniProt P49841); assay: GSK3β human kinase assay (glass-fiber filter); settings: test concentration of 10^−6M; for inhibition at 1 µM: read-out: C8 score (inhibition of GSK3β human)
In short: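 Human GSK3β (5-10 mU) with 20 μM phospho GS2 peptide, [γ-^33P]ATP, 8 mM MOPS pH 7.0, 10 mM Mg acetate; 40 min at room temperature. Stopped with phosphoric acid; substrate phosphorylation read as filter-bound radioactivity by scintillation counting.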

Fms (h) = Fms (h) (Homo sapiens, UniProt P07333); assay: Fms human kinase assay (glass-fiber filter); settings: test concentration of 10^−6M; for inhibition at 1 µM: read-out: C7 score (inhibition of Fms human)
In short: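 Radiometric filter-binding assay: Fms (5-10 mU) with 250 μM peptide substrate and [γ-33P]ATP in 8 mM MOPS pH 7.0, 10 mM Mg acetate, 40 min at room temperature. Reaction stopped with phosphoric acid; substrate-bound 33P counted on P30 filtermat.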

Flt3 (h) = Flt3 (h) (Homo sapiens, UniProt P36888); assay: Flt3 human kinase assay (glass-fiber filter); settings: test concentration of 10^−6M; for inhibition at 1 µM: read-out: C6 score (inhibition of Flt3 human)
In short: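 Human Flt3 (5-10 mU) with 50 μM peptide substrate in 8 mM MOPS pH 7.0, 0.2 mM EDTA, 10 mM Mg acetate and [γ-33P]ATP (concentration as required), 40 min at room temperature. Reaction stopped with phosphoric acid; substrate 33P incorporation counted on P30 glass-fiber filter.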

Fes (h) = Fes (h) (Homo sapiens, UniProt P07332); assay: Fes human kinase assay (glass-fiber filter); settings: test concentration of 10^−6M; for inhibition at 1 µM: read-out: C4 score (inhibition of Fes human)
In short: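 Human Fes (5–10 mU) was incubated with 0.1 mg/ml poly(Glu,Tyr) 4:1 in 8 mM MOPS pH 7.0, 0.2 mM EDTA, 10 mM Mg acetate and [γ-33P]ATP for 40 min at room temperature. The reaction was stopped with phosphoric acid, and substrate phosphorylation was quantified by filter binding and scintillation counting.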

Chain of GSK3B (h) (P49841 whole entry): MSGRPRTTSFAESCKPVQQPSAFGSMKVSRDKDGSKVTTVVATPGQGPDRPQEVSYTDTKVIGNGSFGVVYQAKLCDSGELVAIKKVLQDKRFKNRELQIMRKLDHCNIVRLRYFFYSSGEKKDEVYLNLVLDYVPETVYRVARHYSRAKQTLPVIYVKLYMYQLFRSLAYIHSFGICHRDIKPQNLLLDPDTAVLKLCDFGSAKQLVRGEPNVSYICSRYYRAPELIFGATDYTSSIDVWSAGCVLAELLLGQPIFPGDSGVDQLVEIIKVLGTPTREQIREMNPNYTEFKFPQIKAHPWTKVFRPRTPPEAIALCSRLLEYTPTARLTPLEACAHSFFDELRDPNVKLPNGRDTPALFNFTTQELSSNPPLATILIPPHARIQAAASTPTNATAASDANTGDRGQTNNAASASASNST
Chain of Flt3 (h) (P36888 27-993): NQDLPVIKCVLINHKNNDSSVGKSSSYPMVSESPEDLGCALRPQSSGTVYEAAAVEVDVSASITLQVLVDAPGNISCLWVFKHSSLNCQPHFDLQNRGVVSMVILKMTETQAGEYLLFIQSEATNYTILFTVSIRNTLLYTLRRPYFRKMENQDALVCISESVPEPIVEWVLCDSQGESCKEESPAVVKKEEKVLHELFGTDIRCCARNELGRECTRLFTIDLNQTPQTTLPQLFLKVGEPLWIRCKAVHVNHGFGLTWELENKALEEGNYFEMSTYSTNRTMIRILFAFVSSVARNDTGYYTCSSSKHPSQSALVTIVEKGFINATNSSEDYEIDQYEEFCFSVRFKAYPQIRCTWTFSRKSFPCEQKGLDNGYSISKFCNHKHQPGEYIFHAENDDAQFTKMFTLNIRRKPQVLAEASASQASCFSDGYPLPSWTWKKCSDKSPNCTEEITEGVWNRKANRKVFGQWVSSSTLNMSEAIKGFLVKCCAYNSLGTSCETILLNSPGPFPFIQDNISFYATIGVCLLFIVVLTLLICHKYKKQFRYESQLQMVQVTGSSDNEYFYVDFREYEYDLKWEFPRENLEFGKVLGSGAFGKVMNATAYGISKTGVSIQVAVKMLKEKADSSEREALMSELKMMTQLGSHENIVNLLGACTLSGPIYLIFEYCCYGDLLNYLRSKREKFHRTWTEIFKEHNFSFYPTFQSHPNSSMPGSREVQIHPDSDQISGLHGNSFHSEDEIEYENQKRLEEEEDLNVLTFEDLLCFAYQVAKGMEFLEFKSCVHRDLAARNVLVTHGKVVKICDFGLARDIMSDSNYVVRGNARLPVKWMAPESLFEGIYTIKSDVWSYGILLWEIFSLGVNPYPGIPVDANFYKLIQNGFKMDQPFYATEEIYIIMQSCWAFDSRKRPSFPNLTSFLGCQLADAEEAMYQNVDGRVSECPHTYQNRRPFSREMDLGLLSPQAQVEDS
Chain of Lyn (h) (P07948 whole entry): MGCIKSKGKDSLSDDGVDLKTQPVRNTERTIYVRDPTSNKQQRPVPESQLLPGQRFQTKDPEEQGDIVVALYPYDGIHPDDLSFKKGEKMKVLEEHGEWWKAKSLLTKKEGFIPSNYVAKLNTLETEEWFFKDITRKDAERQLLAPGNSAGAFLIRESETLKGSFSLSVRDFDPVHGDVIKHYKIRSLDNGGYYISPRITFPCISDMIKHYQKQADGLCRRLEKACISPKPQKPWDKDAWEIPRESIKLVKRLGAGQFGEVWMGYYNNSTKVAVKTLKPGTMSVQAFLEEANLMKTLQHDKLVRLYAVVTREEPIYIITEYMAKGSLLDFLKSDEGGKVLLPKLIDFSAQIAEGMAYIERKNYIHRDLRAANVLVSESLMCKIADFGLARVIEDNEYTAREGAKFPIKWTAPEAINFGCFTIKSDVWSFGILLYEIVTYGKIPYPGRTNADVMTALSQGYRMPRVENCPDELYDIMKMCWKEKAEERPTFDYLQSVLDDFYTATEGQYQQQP
Chain of Fes (h) (P07332 whole entry): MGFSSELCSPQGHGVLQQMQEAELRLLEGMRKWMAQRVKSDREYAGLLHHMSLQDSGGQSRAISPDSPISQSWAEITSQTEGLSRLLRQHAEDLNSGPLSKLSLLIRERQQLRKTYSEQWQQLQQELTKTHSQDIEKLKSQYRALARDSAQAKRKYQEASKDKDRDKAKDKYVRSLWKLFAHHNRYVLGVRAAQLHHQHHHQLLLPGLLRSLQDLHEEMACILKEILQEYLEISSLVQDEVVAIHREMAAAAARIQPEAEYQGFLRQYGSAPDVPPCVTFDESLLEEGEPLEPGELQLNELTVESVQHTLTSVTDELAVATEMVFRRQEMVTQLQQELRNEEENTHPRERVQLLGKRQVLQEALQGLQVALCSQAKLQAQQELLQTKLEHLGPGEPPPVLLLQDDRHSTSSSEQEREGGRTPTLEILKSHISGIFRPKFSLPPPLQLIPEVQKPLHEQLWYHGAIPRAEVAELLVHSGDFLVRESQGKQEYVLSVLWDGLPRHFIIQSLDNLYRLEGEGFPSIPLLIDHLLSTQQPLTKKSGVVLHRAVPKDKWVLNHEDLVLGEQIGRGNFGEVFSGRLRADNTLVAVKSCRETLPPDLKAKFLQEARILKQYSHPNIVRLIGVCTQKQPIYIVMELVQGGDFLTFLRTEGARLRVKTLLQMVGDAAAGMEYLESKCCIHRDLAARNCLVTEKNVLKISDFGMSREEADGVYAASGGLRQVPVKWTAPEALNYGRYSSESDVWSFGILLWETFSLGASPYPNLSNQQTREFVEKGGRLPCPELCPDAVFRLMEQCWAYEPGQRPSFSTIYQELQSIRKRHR
Chain of Fms (h) (P07333 20-972): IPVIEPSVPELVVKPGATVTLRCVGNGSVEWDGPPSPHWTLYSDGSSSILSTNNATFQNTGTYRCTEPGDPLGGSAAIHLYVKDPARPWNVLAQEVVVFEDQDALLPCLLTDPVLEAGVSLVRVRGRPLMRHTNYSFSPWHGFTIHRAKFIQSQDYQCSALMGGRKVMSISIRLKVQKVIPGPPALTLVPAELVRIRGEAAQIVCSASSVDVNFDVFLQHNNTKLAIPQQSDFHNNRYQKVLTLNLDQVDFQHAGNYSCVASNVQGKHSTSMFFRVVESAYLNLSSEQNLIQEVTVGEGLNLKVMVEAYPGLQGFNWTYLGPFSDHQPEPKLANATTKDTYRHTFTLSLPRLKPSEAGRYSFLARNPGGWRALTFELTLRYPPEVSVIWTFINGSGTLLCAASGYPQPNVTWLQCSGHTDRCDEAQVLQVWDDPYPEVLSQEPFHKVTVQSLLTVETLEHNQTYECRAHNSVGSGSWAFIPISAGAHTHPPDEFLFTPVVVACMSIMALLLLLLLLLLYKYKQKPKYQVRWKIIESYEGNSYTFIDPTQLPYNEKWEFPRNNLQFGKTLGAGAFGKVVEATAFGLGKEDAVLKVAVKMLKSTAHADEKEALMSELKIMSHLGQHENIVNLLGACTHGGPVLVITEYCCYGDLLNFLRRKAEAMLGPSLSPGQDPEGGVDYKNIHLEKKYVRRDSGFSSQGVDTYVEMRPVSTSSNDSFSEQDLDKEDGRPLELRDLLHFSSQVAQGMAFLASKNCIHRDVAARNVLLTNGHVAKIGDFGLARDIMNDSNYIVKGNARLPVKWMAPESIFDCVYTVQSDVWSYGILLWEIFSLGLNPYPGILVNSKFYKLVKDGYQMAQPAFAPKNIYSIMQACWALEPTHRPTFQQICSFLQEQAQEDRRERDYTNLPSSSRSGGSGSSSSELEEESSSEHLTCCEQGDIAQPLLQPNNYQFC

inhibition at 1 µM (Lyn (h)) [%]	inhibition at 1 µM (EGFR (h)) [%]	inhibition at 1 µM (cSRC (h)) [%]	inhibition at 1 µM (GSK3B (h)) [%]	inhibition at 1 µM (Fms (h)) [%]	inhibition at 1 µM (Flt3 (h)) [%]	inhibition at 1 µM (Fes (h)) [%]	Molecule	C10 score (inhibition of Lyn human) (Lyn (h))	C4 score (inhibition of EGFR human) (EGFR (h))	C3 score (inhibition of cSRC human) (cSRC (h))	C8 score (inhibition of GSK3β human) (GSK3B (h))	C7 score (inhibition of Fms human) (Fms (h))	C6 score (inhibition of Flt3 human) (Flt3 (h))	C4 score (inhibition of Fes human) (Fes (h))
–	–	–	–	–	–	–	1H,7H-2,6: 12,8-dimetheno-14H-13,19,1,3,5,7-benzodioxatetraazacycloheneicosine, 22-bromo-15,16,17,18-tetrahydro-11-methoxy- [Compound 35]	2 (Score 2=30-60% inhibition)	2 (Score 2=30-60% inhibition)	1 (Score 1=10-30% inhibition)	1 (Score 1=10-30% inhibition)	2 (Score 2=30-60% inhibition)	2 (Score 2=30-60% inhibition)	1 (Score 1=10-30% inhibition)
–	–	–	–	–	–	–	12,8-metheno-6,2-nitrilo-7H-13,1,5,7,16,19-benzoxapentaazacyclodocosine-3-carbonitrile, 23-chloro-1,14,15,16,17,18,19,20-octahydro-11-methoxy-19-methyl-17-oxo- [Compound 32]	4 (Score 4=>80% inhibition)	4 (Score 4=>80% inhibition)	4 (Score 4=>80% inhibition)	4 (Score 4=>80% inhibition)	1 (Score 1=10-30% inhibition)	4 (Score 4=>80% inhibition)	4 (Score 4=>80% inhibition)
10 to 30	10 to 30	10 to 30	30 to 60	30 to 60	> 80	60 to 80	N#Cc1cnc2nc1Nc1cccc(c1)OCC(=O)NCCCOc1cccc(c1)N2 [Compound 25, 14,21-dioxa-2,4,8,17,28-pentaazatetracyclo[20.3.1.1~3,7~.1~9,13~]octacosa-1(26),3,5,7(28),9,11,13(27),22,24-nonaene-6-carbonitrile, 16-oxo-]	–	–	–	–	–	–	–
30 to 60	10 to 30	10 to 30	10 to 30	30 to 60	60 to 80	30 to 60	N#Cc1cnc2nc1Nc1cccc(c1)OCC(=O)NCCCCOc1cccc(c1)N2 [Compound 26, 14,22-dioxa-2,4,8,17,29-pentaazatetracyclo[21.3.1.1~3,7~.1~9,13~]nonacosa-1(27),3,5,7(29),9,11,13(28),23,25-nonaene-6-carbonitrile, 16-oxo-]	–	–	–	–	–	–	–
10 to 30	–	30 to 60	60 to 80	30 to 60	60 to 80	10 to 30	N#Cc1cnc2nc1Nc1cccc(c1)OCCCNC(=O)COc1cccc(c1)N2 [Compound 28, 14,21-dioxa-2,4,8,18,28-pentaazatetracyclo[20.3.1.1~3,7~.1~9,13~]octacosa-1(26),3,5,7(28),9,11,13(27),22,24-nonaene-6-carbonitrile, 19-oxo-]	–	–	–	–	–	–	–
10 to 30	30 to 60	10 to 30	–	10 to 30	10 to 30	10 to 30	COc1ccc2c(c1)OCCCCCCOc1ccc(Cl)cc1Nc1cc(ncn1)N2 [Compound 34, 11H-6,10-metheno-5H-dibenzo[b,k][1,13,4,6,8,10]dioxatetraazacyclononadecine, 13-chloro-17,18,19,20,21,22-hexahydro-2-methoxy-]	–	–	–	–	–	–	–
–	–	–	–	–	–	–	COc1ccc2cc1OCCCCCCOc1ccc(Br)cc1Nc1cc(ncn1)N2 [Compound 36, 1H,7H-2,6: 12,8-dimetheno-13,20,1,3,5,7-benzodioxatetraazacyclodocosine, 23-bromo-14,15,16,17,18,19-hexahydro-11-methoxy-]	3 (Score 3=60-80% inhibition)	4 (Score 4=>80% inhibition)	1 (Score 1=10-30% inhibition)	–	1 (Score 1=10-30% inhibition)	1 (Score 1=10-30% inhibition)	1 (Score 1=10-30% inhibition)
–	–	–	–	–	–	–	COc1ccc2cc1OCCCCCCCOc1ccc(Br)cc1Nc1cc(ncn1)N2 [Compound 37, 1H,7H-2,6: 12,8-dimetheno-14H-13,21,1,3,5,7-benzodioxatetraazacyclotricosine, 24-bromo-15,16,17,18,19,20-hexahydro-11-methoxy-]	2 (Score 2=30-60% inhibition)	3 (Score 3=60-80% inhibition)	1 (Score 1=10-30% inhibition)	1 (Score 1=10-30% inhibition)	1 (Score 1=10-30% inhibition)	–	1 (Score 1=10-30% inhibition)
> 80	> 80	> 80	10 to 30	–	–	60 to 80	COc1ccc2cc1OCCNC(=O)CNC(=O)Cc1ccc(Cl)cc1Nc1cc(ncn1)N2 [Compound 103, 1H,7H-6,2:12,8-dimetheno-13,1,3,5,7,16,19-benzoxahexaazacyclotricosine-17,20(14H)-dione, 24-chloro-15,16,18,19,21-pentahydro-11-methoxy-]	–	–	–	–	–	–	–
> 80	> 80	> 80	10 to 30	10 to 30	–	60 to 80	COc1ccc2cc1OCCCNC(=O)C(C)(C)NC(=O)Cc1ccc(Cl)cc1Nc1cc(ncn1)N2 [Compound 105, 6,2:8,12-dimetheno-7H-13,1,3,5,7,17,20-benzoxahexaazacyclotetracosine-18,21-dione, 25-chloro-1,14,15,16,17,19,20,22-octahydro-11-methoxy-19,19-dimethyl-]	–	–	–	–	–	–	–
> 80	> 80	> 80	10 to 30	10 to 30	10 to 30	> 80	CC1(C)NC(=O)Cc2ccc(Cl)cc2Nc2cc(ncn2)Nc2ccc(OCCCN3CCOCC3)c(c2)OCCNC1=O [Compound 106, 1H,7H-6,2:8,12-dimetheno-13,1,3,5,7,16,19-benzoxahexaazacyclotricosine-17,20(14H)-dione, 24-chloro-15,16,18,19,21-pentahydro-18,18-dimethyl-11-[3-(4-morpholinyl)propoxy]-]	–	–	–	–	–	–	–
